Assay results reported in patent US20090325959A1 (priority 2008, published 2009).
pKi: −log10 of the molar value. Where two headings read alike, the source gives them in different places.

Tests used:
Akt3 human enzyme = biological target: T1, Akt3 human enzyme (Homo sapiens, UniProt Q9Y243); test: Akt3 inhibition assay (IMAP FP); type: biochemical;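 further: kinase reaction run 60 min at room temperature after 30 µM ATP start, phosphorylated substrate captured on IMAP beads and read as fluorescence polarization (mP)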
T1 construct: purchased Upstate Chemicon 14-502

ROCK1 = biological target: T2, ROCK1 (Homo sapiens, UniProt Q13464); test: Rho kinase inhibition assay (IMAP fluorescence polarization), ROCK1; type: biochemical;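 further: kinase reaction run 60 min at room temperature, then phosphorylated substrate captured on IMAP beads for 30 min, with fluorescence polarization read in mP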
T2 construct: purchased Upstate/Chemicon 14-601
Method: (§1) Following the pre-incubation, 10 μM ATP was added to initiate the reaction. After 60 minutes at room temperature, Molecular Devices IMAP™ binding solution was added to bind phosphorylated substrate. After 30 minutes of incubation in the presence of the IMAP™ beads, the fluorescence polarization was read and the ratio was reported as mP. IC50 values for compounds and EC50 values for ATP were calculated using the Prism software from Graphpad.

p70S6K human enzyme = biological target: T3, p70S6K human enzyme (Homo sapiens, UniProt P23443, T412E); test: p70S6K inhibition assay (IMAP FP); type: biochemical;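 further: kinase reaction run at room temperature, phosphorylated substrate captured on IMAP beads and read as fluorescence polarization in mP, IC50 then converted to Ki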
T3 construct: purchased Upstate Chemicon 14-486

[1] = Compound plasma concentrations in unsensitized mice at 15 min post administration; type: in vivo; settings: mouse, 15 μmol/kg; mean compound plasma concentration in mice at 15 minutes post oral administration; read-out: Mouse Oral PK
ROCK2 = biological target: T4, ROCK2 (Homo sapiens, UniProt O75116); test: Rho kinase inhibition assay (IMAP fluorescence polarization), ROCK2; type: biochemical;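 further: kinase reaction started with 10 µM ATP and run 60 min at room temperature, then phosphorylated substrate captured on IMAP beads for 30 min and fluorescence polarization read in mP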
T4 construct: purchased Upstate/Chemicon 14-451
Method: as §1

[2] = 30 μM ATP, Ki=IC50/(1+([ATP Challenge]/EC50 ATP)), read-out: Akt3 Ki, Avg
[3] = 30 μM ATP, Ki=IC50/(1+([ATP Challenge]/EC50 ATP)), read-out: p70S6K Ki, Avg
[4] = average Ki, read-out: p70S6K Ki
[5] = 10 μM ATP, read-out: ROCK2 Ki, Avg

T2 sequence (Q13464 17-535 limits assumed): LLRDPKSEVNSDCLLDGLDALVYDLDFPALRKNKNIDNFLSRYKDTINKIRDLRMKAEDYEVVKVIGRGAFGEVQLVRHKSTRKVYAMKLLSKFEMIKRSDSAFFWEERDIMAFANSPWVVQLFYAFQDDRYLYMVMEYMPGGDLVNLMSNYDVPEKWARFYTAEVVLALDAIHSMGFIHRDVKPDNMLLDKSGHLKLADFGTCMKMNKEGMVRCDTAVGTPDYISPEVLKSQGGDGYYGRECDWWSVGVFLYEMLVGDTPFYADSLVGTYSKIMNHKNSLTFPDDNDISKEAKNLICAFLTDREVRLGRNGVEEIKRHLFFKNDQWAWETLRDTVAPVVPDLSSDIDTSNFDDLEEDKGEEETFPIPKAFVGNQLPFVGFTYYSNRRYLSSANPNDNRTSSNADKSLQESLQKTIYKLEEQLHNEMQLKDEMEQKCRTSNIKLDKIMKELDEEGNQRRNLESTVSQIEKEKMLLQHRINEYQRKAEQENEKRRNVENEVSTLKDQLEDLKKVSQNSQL
T1 sequence (Q9Y243 whole entry): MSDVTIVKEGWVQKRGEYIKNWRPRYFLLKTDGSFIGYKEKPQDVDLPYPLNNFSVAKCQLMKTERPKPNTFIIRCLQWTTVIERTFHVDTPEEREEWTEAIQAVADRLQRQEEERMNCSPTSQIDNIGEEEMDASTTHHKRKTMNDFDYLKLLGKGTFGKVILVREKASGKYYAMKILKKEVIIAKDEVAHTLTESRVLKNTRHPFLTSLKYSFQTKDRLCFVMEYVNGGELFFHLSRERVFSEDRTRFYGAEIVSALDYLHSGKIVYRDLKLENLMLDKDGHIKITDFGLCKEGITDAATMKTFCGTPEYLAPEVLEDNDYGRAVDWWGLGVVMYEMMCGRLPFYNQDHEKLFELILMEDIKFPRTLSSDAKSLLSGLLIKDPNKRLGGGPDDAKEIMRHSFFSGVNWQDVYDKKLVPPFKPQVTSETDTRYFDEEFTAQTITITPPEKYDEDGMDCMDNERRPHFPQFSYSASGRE
T3 sequence (P23443 1-421 T412E limits assumed): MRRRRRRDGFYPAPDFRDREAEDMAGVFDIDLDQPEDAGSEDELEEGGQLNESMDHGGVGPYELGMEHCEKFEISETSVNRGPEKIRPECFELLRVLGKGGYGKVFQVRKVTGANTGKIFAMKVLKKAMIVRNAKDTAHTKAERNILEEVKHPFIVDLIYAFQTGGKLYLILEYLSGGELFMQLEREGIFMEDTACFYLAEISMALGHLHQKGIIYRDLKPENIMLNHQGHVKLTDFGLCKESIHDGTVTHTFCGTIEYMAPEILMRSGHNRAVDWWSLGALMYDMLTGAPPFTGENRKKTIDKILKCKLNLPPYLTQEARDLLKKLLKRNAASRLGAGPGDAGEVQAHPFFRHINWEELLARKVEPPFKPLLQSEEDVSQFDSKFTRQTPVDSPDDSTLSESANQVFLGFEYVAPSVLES
T4 sequence (O75116 11-552 limits assumed): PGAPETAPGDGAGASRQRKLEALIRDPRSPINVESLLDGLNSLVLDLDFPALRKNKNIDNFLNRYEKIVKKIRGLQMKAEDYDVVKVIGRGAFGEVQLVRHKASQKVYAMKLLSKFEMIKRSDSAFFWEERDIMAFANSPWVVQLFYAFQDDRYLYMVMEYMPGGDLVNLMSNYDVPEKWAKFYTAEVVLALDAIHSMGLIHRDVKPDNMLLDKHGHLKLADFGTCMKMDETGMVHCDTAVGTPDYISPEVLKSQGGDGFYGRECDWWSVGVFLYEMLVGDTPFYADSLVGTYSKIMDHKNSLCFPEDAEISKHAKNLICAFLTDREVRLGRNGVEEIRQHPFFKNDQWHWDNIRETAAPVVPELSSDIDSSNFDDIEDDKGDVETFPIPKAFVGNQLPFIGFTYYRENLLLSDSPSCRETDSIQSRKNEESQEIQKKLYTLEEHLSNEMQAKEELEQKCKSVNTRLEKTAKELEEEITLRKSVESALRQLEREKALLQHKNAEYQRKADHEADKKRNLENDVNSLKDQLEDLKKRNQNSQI

Row | SMILES | pKi (Akt3 human enzyme; [2]) | pKi (Akt3 human enzyme; average Ki, read-out: Akt3 Ki) | pKi (ROCK1; Avg, 10 μM ATP) | pKi (ROCK1; average Ki) | pKi (p70S6K human enzyme; [3]) | pKi (p70S6K human enzyme; [4]) | concentration at 15 min [1] [nM] | pKi (ROCK2; [5]) | pKi (ROCK2; average Ki, read-out: ROCK2 Ki)
1 | CSc1ccc(CN2CCC[C@H](Nc3ccc4[nH]ncc4c3)C2)cc1 [Compound 1.075, (S)-N-(1-(4-(methylthio)benzyl)piperidin-3-yl)-1H-indazol-5-amine] | 5.27 | 5.27 | 7.31 | 7.31 | 6.01 | 6.01 | 348 | 8.36 | 8.36
2 | C#Cc1ccc(CN2CCC[C@H](Nc3ccc4[nH]ncc4c3)C2)cc1 [Compound 1.077, (S)-N-(1-(4-ethynylbenzyl)piperidin-3-yl)-1H-indazol-5-amine] | 5.28 | 5.28 | 7.12 | 7.12 | 6.15 | 6.15 | 26 | 7.95 | 7.95
3 | O=C(COc1cccc(CN2CCC[C@@H](Nc3ccc4[nH]ncc4c3)C2)c1)Nc1cccnc1 [Compound 1.126, (R)-2-(3-((3-(1H-indazol-5-ylamino)piperidin-1-yl)methyl)phenoxy)-N-(pyridin-3-yl)acetamide] |  |  | 7.12 | 7.12 |  |  | 0 | 7.76 | 7.76
4 | c1cc2cc(CN3CCC[C@@H](Nc4ccc5[nH]ncc5c4)C3)ccc2[nH]1 [Compound 1.143, (R)-N-(1-((1H-indol-5-yl)methyl)piperidin-3-yl)-1H-indazol-5-amine] | 6.15 |  | 7.30 |  | 6.27 |  |  | 7.90 | 
5 | Oc1cccc(CN2CCC[C@@H](Nc3ccc4[nH]ncc4c3)C2)c1 [Compound 1.145, (R)-3-((3-(1H-indazol-5-ylamino)piperidin-1-yl)methyl)phenol] | 5.92 |  | 7.46 |  | 5.64 |  |  | 8.19 | 
6 | Fc1ccc(CN2CCC[C@@H](Nc3ccc4[nH]ncc4c3)C2)cc1 [Compound 1.146, (R)-N-(1-(4-fluorobenzyl)piperidin-3-yl)-1H-indazol-5-amine] | 6.69 |  | 7.40 |  | 6.13 |  |  | 7.97 | 
7 | CCc1ccc(CN2CCC[C@H](Nc3ccc4[nH]ncc4c3)C2)cc1 [Compound 1.154, (S)-N-(1-(4-ethylbenzyl)piperidin-3-yl)-1H-indazol-5-amine] | 5.31 |  | 7.28 |  | 5.95 |  |  | 8.18 | 
8 | CSc1cccc(CN2CCC[C@@H](Nc3ccc4[nH]ncc4c3)C2)c1 [Compound 1.159, (R)-N-(1-(3-(methylthio)benzyl)piperidin-3-yl)-1H-indazol-5-amine] | 5.91 |  | 7.32 |  | 5.69 |  |  | 8.00 | 
9 | Clc1cccc(CN2CCC[C@H](Nc3ccc4[nH]ncc4c3)C2)c1 [Compound 1.170, (S)-N-(1-(3-chlorobenzyl)piperidin-3-yl)-1H-indazol-5-amine] | 5.11 |  | 7.10 |  | 5.69 |  |  | 7.90 | 
10 | CC(C)(C)OC(=O)NCc1cccc(CN2CCC[C@H](Nc3ccc4[nH]ncc4c3)C2)c1 [Compound 1.176, (S)-tert-butyl 3-((3-(1H-indazol-5-ylamino)piperidin-1-yl)methyl)benzylcarbamate] | 4.68 | 4.68 | 6.50 | 6.50 | 5.06 | 5.06 | 89 |  | 
11 | FC(F)(F)c1ccc(CN2CCC[C@@H](Nc3ccc4[nH]ncc4c3)C2)cc1 [Compound 1.178, (R)-N-(1-(4-(trifluoromethyl)benzyl)piperidin-3-yl)-1H-indazol-5-amine] | 6.15 |  | 6.86 |  | 5.95 |  |  | 7.60 | 
12 | Brc1cccc(CN2CCC[C@H](Nc3ccc4[nH]ncc4c3)C2)c1 [Compound 1.183, (S)-N-(1-(3-bromobenzyl)piperidin-3-yl)-1H-indazol-5-amine] | 5.05 |  | 6.78 |  | 5.61 |  |  | 7.77 | 
13 | c1cc(C2CC2)ccc1CN1CCC[C@H](Nc2ccc3[nH]ncc3c2)C1 [Compound 1.185, (S)-N-(1-(4-cyclopropylbenzyl)piperidin-3-yl)-1H-indazol-5-amine] | 5.38 |  | 7.09 |  | 5.94 |  |  | 7.90 | 
14 | C#Cc1cccc(CN2CCC[C@@H](Nc3ccc4[nH]ncc4c3)C2)c1 [Compound 1.193, (R)-N-(1-(3-ethynylbenzyl)piperidin-3-yl)-1H-indazol-5-amine] |  |  | 7.19 | 7.19 |  |  | 55 | 7.83 | 7.83
15 | C=Cc1ccc(CN2CCC[C@@H](Nc3ccc4[nH]ncc4c3)C2)cc1 [Compound 1.208, (R)-N-(1-(4-vinylbenzyl)piperidin-3-yl)-1H-indazol-5-amine] | 6.46 |  | 7.27 |  | 6.14 |  |  | 7.89 | 
16 | COc1ccc(CN2CCC[C@@H](Nc3ccc4[nH]ncc4c3)C2)cc1 [Compound 1.226, (R)-N-(1-(4-methoxybenzyl)piperidin-3-yl)-1H-indazol-5-amine] | 6.27 |  | 7.04 |  | 5.87 |  |  | 8.06 | 
17 | c1ccc(CN2CCC[C@H](Nc3ccc4[nH]ncc4c3)C2)cc1 [Compound 1.227, (S)-N-(1-benzylpiperidin-3-yl)-1H-indazol-5-amine] | 5.46 |  | 7.32 |  | 5.80 |  |  | 8.28 | 
18 | C=Cc1ccc(CN2CCC[C@H](Nc3ccc4[nH]ncc4c3)C2)cc1 [Compound 1.229, (S)-N-(1-(4-vinylbenzyl)piperidin-3-yl)-1H-indazol-5-amine] | 4.61 |  | 6.92 |  | 5.50 |  |  | 7.74 | 
19 | c1cc2c(cc1CN1CCC[C@@H](Nc3ccc4[nH]ncc4c3)C1)CCO2 [Compound 1.246, (R)-N-(1-((2,3-dihydrobenzofuran-5-yl)methyl)piperidin-3-yl)-1H-indazol-5-amine] | 5.96 |  | 7.04 |  | 5.73 |  |  | 7.95 | 
20 | CCS(=O)(=O)Nc1cc(CN2CCC[C@@H](Nc3ccc4[nH]ncc4c3)C2)ccc1C [Compound 1.259, (R)-N-(5-((3-(1H-indazol-5-ylamino)piperidin-1-yl)methyl)-2-methylphenyl)ethanesulfonamide] |  |  | 7.71 | 7.71 |  |  | 264 | 8.68 | 8.68
21 | Cc1ccc(S(=O)(=O)Nc2cc(CN3CCC[C@@H](Nc4ccc5[nH]ncc5c4)C3)ccc2C)cc1 [Compound 1.260, (R)-N-(5-((3-(1H-indazol-5-ylamino)piperidin-1-yl)methyl)-2-methylphenyl)-4-methylbenzenesulfonamide] |  |  | 7.15 | 7.15 |  |  | 291 | 8.15 | 8.15
22 | c1cc(N[C@@H]2CCN(Cc3ccc4cc[nH]c4c3)C2)c2ccncc2c1 [Compound 2.057, (R)-N-(1-((1H-indol-6-yl)methyl)pyrrolidin-3-yl)isoquinolin-5-amine] |  |  | 8.21 | 8.21 |  |  | 431 | 8.43 | 8.43
23 | Oc1cccc(CN2CC[C@@H](Nc3cccc4cnccc34)C2)c1 [Compound 2.061, (R)-3-((3-(isoquinolin-5-ylamino)pyrrolidin-1-yl)methyl)phenol] |  |  | 7.98 | 7.98 |  |  | 73 | 8.74 | 8.74
24 | c1cc(N[C@@H]2CCN(Cc3ccc4[nH]ccc4c3)C2)c2ccncc2c1 [Compound 2.065, (R)-N-(1-((1H-indol-5-yl)methyl)pyrrolidin-3-yl)isoquinolin-5-amine] |  |  | 8.39 | 8.39 |  |  | 236 | 8.74 | 8.74
